Results from article PMC10218498, “Exploring BenzylethoxyAryl Urea Scaffolds for Multitarget Immunomodulation Therapies” (International Journal of Molecular Sciences, 2023).

Assays:
[1] = tested on: HMEC-1 microtube formation; assay: Tube formation inhibition assay on Matrigel; assay type: cell-based, human; conditions: HMEC-1 on Matrigel, 24 h
Description: The capacity to inhibit the formation of a new vasculature network formed by HMEC-1 was evaluated on compounds 8 and 14 at different concentrations.
Wells of an IBIDI μ-slide angiogenesis (IBIDI, Martinsried, Germany) were coated with 15 μL of Matrigel® (10 mg/mL, BD Biosciences) at 4 °C. After gelatinization at 37 °C for 30 min, HMEC-1 cells were seeded at 2 × 10^4 cells/well in 25 μL of culture medium on top of the Matrigel and were incubated 30 min at 37 °C while are attached. Then, compounds were added and dissolved in 25 μL of culture medium, and after 24 h of incubation at 37 °C, tube formation was evaluated.

| Structure (SMILES) | melting point [°C] | Minimum Active Conc. (inhibition of microtube formation) [1] [µM] |
| --- | --- | --- |
| COc1ccc(COc2cccc(NC(=O)Nc3ccc(F)cc3)c2)cc1 [Compound 2] | 201 to 205 | – |
| COc1ccc(COc2cccc(NC(=O)Nc3ccc(Br)cc3)c2)cc1 [Compound 8] | – | 20 |
| COc1ccc(COc2cccc(NC(=O)Oc3ccccc3)c2)cc1 [Compound 14] | – | 20 |
